According to PMC4809600, “The Influence of Chronic Wound Extracts on Inflammatory Cytokine and Histatin Stability” (PLoS ONE, 2016):
Where no end group is shown, it is not given here.

Columns and labels:
[1] = Stability in chronic wound extracts (CWE), capillary zone electrophoresis; type: in vitro ADME, human; conditions: 37°C, CZE; for Percentage intact, CWE 2h / Percentage intact, CWE 4h / Percentage intact, CWE 8h / Percentage intact, CWE 16h / Percentage intact, CWE 24h / Percentage intact, CWE 48h / Percentage intact, CWE 72h / Percentage intact, CWE 96h: 1 mg/ml in PBS mixed 1:1 with CWE (1 mg/ml protein, pool of 5 donors) in PBS, UV 200 nm, ratio to imidazole
Excerpt: (§1) Debridement tissue was obtained from chronic ulcers of 15 patients with therapy resistant (arterio-venous) leg ulcers, according to procedures described earlier. In brief, moist, easily removable debridement material, essentially blood free, was collected from the ulcer surface and divided equally into two different solutions: (i) PBS (B. Braun, Melsungen, Germany), (ii) PBS with protease inhibitor cocktail (PIC) (1:100; v/v) (Sigma-Aldrich, Steinheim, Germany). The mixtures were gently shaken for 1 h at 4°C to elute proteins and centrifuged; the supernatants were stored at -80°C. Total protein content of the supernatant was measured using the BioRad Protein Assay (BioRad Laboratories, Hercules, California, USA) essentially as described by the supplier. Samples were diluted to 1 mg/ml protein and extracts of five different donors were pooled; three different pools of five donors were used in all experiments. The samples are referred to as chronic wound extracts (CWE).
(§2) To determine the stability of the different peptides in CWE, histatins and cytokines were dissolved in PBS at 1 mg/ml. Histatins and cytokines were incubated in a 1:1 ratio with (i) PBS, (ii) CWE in PBS, or (iii) CWE in PBS containing PIC, in a total volume of 25 μl. Imidazole (Sigma-Aldrich) was added as an internal standard, with a final concentration of 100 μg/ml. The mixtures were incubated at 37°C, and samples were taken at 0, 24, 48, 72 and 96 h. For histatins containing mixtures, additional samples were taken after 2, 4, 8 and 16 h of incubation.
(§3) The samples were analyzed with a BioFocus 2000 capillary zone electrophoresis system (Bio-Rad Laboratories, Hercules, CA, USA) equipped with an uncoated fused-silica capillary of internal diameter 50 μm and a length of 24 cm. Samples were loaded by pressure injection (5 psi/sec). Separation was performed at 10 kV (cathode at the detector side) at 20°C using 0.1 M phosphate buffer (pH 2.5) as electrolyte and monitored continuously at 200 nm. Peaks were quantified with the BioFocus Integrator software. In order to quantify the percentage of intact peptides remaining after incubation with CWE, the ratios of histatins, rhIL-6 or rhCXCL8 to internal standard was set at 100% at 0h, and the ratios at the other incubation time points were related to this.

[2] = Stability in CWE with protease inhibitor cocktail (PIC), capillary zone electrophoresis; type: in vitro ADME, human; conditions: 37°C, CZE, 0 h = 100%; for Percentage intact, CWE + PIC 2h / Percentage intact, CWE + PIC 4h / Percentage intact, CWE + PIC 8h / Percentage intact, CWE + PIC 16h / Percentage intact, CWE + PIC 24h / Percentage intact, CWE + PIC 48h / Percentage intact, CWE + PIC 72h / Percentage intact, CWE + PIC 96h: 1 mg/ml in PBS mixed 1:1 with CWE (1 mg/ml protein, pool of 5 donors) in PBS containing PIC (final 1:140 v/v), ratio to imidazole
Excerpt: as §1, §2, §3

Sequence: RKFHEKHHSHREFPFYGDYGSNYLYDN [Hst2]
- Percentage intact, CWE 2h ([1]; 0 h = 100%, experiment 1 of 3): 96.21%
- Percentage intact, CWE 2h ([1]; 0 h = 100%, experiment 2 of 3): 97.4179%
- Percentage intact, CWE 2h ([1]; 0 h = 100%, experiment 3 of 3): 80.1639%
- Percentage intact, CWE 4h ([1]; 0 h = 100%, experiment 1 of 3): 78.5338%
- Percentage intact, CWE 4h ([1]; 0 h = 100%, experiment 2 of 3): 80.0345%
- Percentage intact, CWE 4h ([1]; 0 h = 100%, experiment 3 of 3): 54.5442%
- Percentage intact, CWE 8h ([1]; 8 h, 0 h = 100%, experiment 1 of 3): 57.5027%
- Percentage intact, CWE 8h ([1]; 8 h, 0 h = 100%, experiment 2 of 3): 66.6666%
- Percentage intact, CWE 8h ([1]; 8 h, 0 h = 100%, experiment 3 of 3): 34.5662%
- Percentage intact, CWE 16h ([1]; 0 h = 100%, experiment 1 of 3): 14.9136%
- Percentage intact, CWE 16h ([1]; 0 h = 100%, experiment 2 of 3): 27.664%
- Percentage intact, CWE 16h ([1]; 0 h = 100%, experiment 3 of 3): 7.724%
- Percentage intact, CWE 24h ([1]; 24 h, 0 h = 100%, experiment 1 of 3): 4.675%
- Percentage intact, CWE 24h ([1]; 24 h, 0 h = 100%, experiment 2 of 3): 5.495%
- Percentage intact, CWE 24h ([1]; 24 h, 0 h = 100%, experiment 3 of 3): 8.834%
- Percentage intact, CWE 48h ([1]; 0 h = 100%, experiment 2 of 3): 0.0001%
- Percentage intact, CWE 48h ([1]; 0 h = 100%, experiment 3 of 3): 0.0001%
- Percentage intact, CWE 72h ([1]; 0 h = 100%, experiment 2 of 3): 0.0001%
- Percentage intact, CWE 72h ([1]; 0 h = 100%, experiment 3 of 3): 0.0001%
- Percentage intact, CWE 96h ([1]; 0 h = 100%, experiment 2 of 3): 0.0001%
- Percentage intact, CWE 96h ([1]; 0 h = 100%, experiment 3 of 3): 0.0001%
- remaining at 8 h, 0.5 mg/ml ([1]; human, chronic wound extracts (CWE), 1 mg/ml in PBS mixed 1:1 with CWE (1 mg/ml protein, pools of 5 donors), 8 h, 0 h = 100%, mean of 3 independent experiments, read-out: Original amount of peptide remaining intact after 8 h in CWE): 53%
- remaining at 24 h, 0.5 mg/ml ([1]; human, chronic wound extracts (CWE), 1 mg/ml in PBS mixed 1:1 with CWE (1 mg/ml protein, pools of 5 donors), 24 h, 0 h = 100%, mean of 3 independent experiments, read-out: Original amount of peptide remaining intact after 24 h in CWE): 6%
- metabolised at 8 h, 0.5 mg/ml ([1]; human, chronic wound extracts (CWE), incubation with chronic wound extracts, 8 h, read-out: Breakdown (degradation) in CWE in 8 h): ~50%
- Percentage intact, CWE + PIC 2h ([2]; experiment 1 of 3): 93.4426%
- Percentage intact, CWE + PIC 2h ([2]; experiment 2 of 3): 92.5142%
- Percentage intact, CWE + PIC 2h ([2]; experiment 3 of 3): 89.0301%
- Percentage intact, CWE + PIC 4h ([2]; experiment 1 of 3): 91.5351%
- Percentage intact, CWE + PIC 4h ([2]; experiment 2 of 3): 92.7977%
- Percentage intact, CWE + PIC 4h ([2]; experiment 3 of 3): 86.7184%
- Percentage intact, CWE + PIC 8h ([2]; experiment 1 of 3): 85.6684%
- Percentage intact, CWE + PIC 8h ([2]; experiment 2 of 3): 89.4382%
- Percentage intact, CWE + PIC 8h ([2]; experiment 3 of 3): 85.0239%
- Percentage intact, CWE + PIC 16h ([2]; experiment 1 of 3): 76.054%
- Percentage intact, CWE + PIC 16h ([2]; experiment 2 of 3): 80.3459%
- Percentage intact, CWE + PIC 16h ([2]; experiment 3 of 3): 78.2959%
- Percentage intact, CWE + PIC 24h ([2]; 24 h, experiment 1 of 3): 76.7074%
- Percentage intact, CWE + PIC 24h ([2]; 24 h, experiment 2 of 3): 74.947%
- Percentage intact, CWE + PIC 24h ([2]; 24 h, experiment 3 of 3): 84.5492%
- Percentage intact, CWE + PIC 48h ([2]; experiment 1 of 3): 70.9832%
- Percentage intact, CWE + PIC 48h ([2]; experiment 2 of 3): 66.2527%
- Percentage intact, CWE + PIC 48h ([2]; experiment 3 of 3): 75.4922%
- Percentage intact, CWE + PIC 72h ([2]; experiment 1 of 3): 69.8915%
- Percentage intact, CWE + PIC 72h ([2]; experiment 2 of 3): 66.4949%
- Percentage intact, CWE + PIC 72h ([2]; experiment 3 of 3): 68.9587%
- Percentage intact, CWE + PIC 96h ([2]; experiment 1 of 3): 63.8972%
- Percentage intact, CWE + PIC 96h ([2]; experiment 2 of 3): 62.3087%
- Percentage intact, CWE + PIC 96h ([2]; experiment 3 of 3): 62.2105%
- remaining at 24 h, 0.5 mg/ml ([2]; human, with protease inhibitor cocktail (PIC), CWE with protease inhibitor cocktail (final 1:140 v/v), 24 h, mean of 3 independent experiments, read-out: Remaining fraction of intact peptide after 24 h in CWE + PIC): 78%
